Test results as given in patent US20120107317A1, “USE OF CYTOPLASMIC C-MYC FOR REGULATING IMMUNE RESPONSES” (priority 2010, published 2012).
Like-named read-outs stand apart in the source and are kept apart here.

What was measured:
[1] = system: BCG-induced c-Myc mRNA expression; assay type: cell-based, human; details: then BCG (M.O.I.=1) 3 hours, vs DMSO
c-Myc [2] = details: cited from earlier work
[3] = molecular target: T1, c-Myc (endogenous protein of primary human blood macrophages) (human, UniProt P01106 16-454); test: co-immunoprecipitation with anti-c-Myc antibody from PBMac lysates, Western blot
T1 construct: Endogenous c-Myc in lysates of primary human blood macrophages (PBMac), with or without BCG treatment; also called cytoplasmic c-Myc
Method: Total proteins (200 μg) were extracted from PBMac by IP buffer (10 mM Tris [pH7.4], 1 mM EDTA, 1 mM EGTA, 150 mM NaCl, 0.5% NP-40, 1% Triton X-100, inhibitor cocktails of proteases and phosphatases), and were incubated with 1μg primary antibodies against IκBα(Santa Cruz Biotechnology, USA) or c-Myc (Millipore, USA) for 2 hours at 4° C. and then with 20 μl Protein A/G agarose beads (Santa Cruz Biotechnology, USA) for 1 hour at 4° C. The immunoprecipitates were then washed 6 times with IP buffer. Cytoplasmic and nuclear proteins were extracted from PBMac as previously described (Cheung et al., 2005; Lee et al., 2005). Immunoprecipitated, cytoplasmic (50 μg) or nuclear proteins (10 μg) were analyzed by Western Blot as in our previous reports (Cheung et al., 2005; Lee et al., 2005).

c-Myc [4] = test: Induction of c-Myc expression by HIV-1 Tat in primary human blood macrophages (RT-PCR, Western blot); assay type: cell-based; details: Tat 2, 4 or 6 hours (mRNA); 20 or 100 ng/ml 24 hours (protein)
Method: Briefly, PBMac were treated with or without Tat ([…]) for indicated time points (2, 4 or 6 hours). Total RNA was extracted for analyzing c-Myc mRNA expression levels by quantitative RT-PCR. In addition, PBMac were treated with HIV-1 Tat (20 or 100 ng/ml) for 24 hours. Cellular proteins were extracted for Western blot analyses to determine protein levels of c-Myc and actin. The level of actin was measured as a control of the amount of proteins loaded.

[5] = 10 μM inhibitor 1 hour pretreatment

T1 sequence (P01106 16-454 limits assumed): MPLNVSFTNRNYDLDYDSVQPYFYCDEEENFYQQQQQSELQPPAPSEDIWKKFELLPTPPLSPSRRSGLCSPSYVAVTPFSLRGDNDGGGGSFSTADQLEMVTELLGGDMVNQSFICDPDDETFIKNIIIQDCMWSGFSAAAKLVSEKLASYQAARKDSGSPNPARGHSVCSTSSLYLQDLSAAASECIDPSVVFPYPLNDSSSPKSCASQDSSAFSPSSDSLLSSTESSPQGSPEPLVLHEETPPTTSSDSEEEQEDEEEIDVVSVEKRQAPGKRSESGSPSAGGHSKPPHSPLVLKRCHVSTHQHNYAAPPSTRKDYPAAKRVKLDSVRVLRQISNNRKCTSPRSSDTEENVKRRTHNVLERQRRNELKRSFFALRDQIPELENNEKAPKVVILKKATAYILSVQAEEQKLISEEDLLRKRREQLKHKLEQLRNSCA

O=C(/C=C/c1ccc(O)c(O)c1)OCCc1ccccc1 [CAPE]
level of BCG-induced c-Myc mRNA expression ([1]; 15 μg/ml inhibitor 1 hour pretreatment): did not affect

C[n+]1ccc(-c2c3nc(c(-c4cc[n+](C)cc4)c4ccc([nH]4)c(-c4cc[n+](C)cc4)c4ccc([nH]4)c(-c4cc[n+](C)cc4)c4nc2C=C4)C=C3)cc1 [Cationic Porphyrin TMPyP4]
expression and activity of c-Myc (c-Myc [2]): inhibit both the expression and activity of c-Myc

COc1cccc(-c2cc(=O)c3ccccc3o2)c1N [PD98059]
level of BCG-induced c-Myc mRNA expression [1, 5]: significantly reduced

C[S+]([O-])c1ccc(-c2nc(-c3ccncc3)c(-c3ccc(F)cc3)[nH]2)cc1 (stereo not shown) [SB203580]
level of BCG-induced c-Myc mRNA expression [1, 5]: did not affect

O=C1c2ccccc2-c2n[nH]c3cccc1c23 [SP600159]
level of BCG-induced c-Myc mRNA expression [1, 5]: significantly reduced

B1: ERK1 (member of ERK1/2, endogenous protein of primary human blood macrophages) (enzyme, UniProt P27361 2-379, looked up)
chain: AAAAAQGGGGGEPRRTEGVGPGVPGEVEMVKGQPFDVGPRYTQLQYIGEGAYGMVSSAYDHVRKTRVAIKKISPFEHQTYCQRTLREIQILLRFRHENVIGIRDILRASTLEAMRDVYIVQDLMETDLYKLLKSQQLSNDHICYFLYQILRGLKYIHSANVLHRDLKPSNLLINTTCDLKICDFGLARIADPEHDHTGFLTEYVATRWYRAPEIMLNSKGYTKSIDIWSVGCILAEMLSNRPIFPGKHYLDQLNHILGILGSPSQEDLNCIINMKARNYLQSLPSKTKVAWAKLFPKSDSKALDLLDRMLTFNPNKRITVEEALAHPYLEQYYDPTDEPVAEEPFTFAMELDDLPKERLKELIFQETARFQPGVLEAP
notes: It is split here into its two members
binding result [3]: no binding

B2: HIV-1 Tat: HIV-1 Tat protein used to treat primary human blood macrophages (protein, UniProt P04608 1-86, looked up)
Protein Tat: MEPVDPRLEPWKHPGSQPKTACTNCYCKKCCFHCQVCFITKALGISYGRKKRRQRRRAHQNSQTHQASLSKQPTSQPRGDPTGPKE
c-Myc expression (mRNA and protein) (c-Myc [4]): induces c-Myc expression
